Data taken from patent US7288543B2, “Opioid receptor antagonists” (Eli Lilly and Company, priority 2004, dated 2007).

How the values were obtained:
Assay type in all cases: biochemical
[1] = molecular target: T1, cloned human mu opioid receptor (Homo sapiens, UniProt P35372); experiment: GTP-γ-S binding assay (SPA), antagonist mode, mu; conditions: functional antagonist potency; membranes with cloned human mu receptor; agonist DAMGO 1 micromolar; Cheng-Prusoff
T1 construct: expressed in transfected cells
Experimental: (§1) The functional antagonist potency (Kb) of the sample compounds was determined using the GTPγS binding assay. GTPgS—based functional assays provide an in vitro measure of the activity of opioid agonists and antagonists. Opioid reference compounds or test compound are incubated with membrane homogenate from cells expressing the cloned human mu, kappa or delta opioid receptor and radiolabeled [35S]GTPgS. If the compound activates the opioid receptor, an increase in the binding of radiolabeled GTPgS is observed. […] These tests provide an in vitro measurement of the activity of the compound at human opioid receptors.
(§2) An SPA-based GTP-γ-S assay format was developed based on previous opioid (Emmerson et al., J. Pharm Exp Ther 278,1121,1996; Horng et al., Society for Neuroscience Abstracts, 434.6, 2000) and muscarinic (DeLapp et al., JPET 289, 946, 1999) assay formats. Membranes were resuspended in 20 mM HEPES, 100 mM NaCl, 5 mM MgCl2, 1 mM DTT, and 1 mM EDTA. Fifty (50) […] of GTP-γ-[35S], compound, membrane suspension (20 microgram/well), and wheat germ agglutinin coated SPA beads (1 mg/well) were added to clear bottom 96 well assay plates. GDP ([…]) was added to the membrane solution prior to addition to the assay plates. Plates were sealed and incubated for four hours at room temperature then placed in a refrigerator overnight to allow the beads to settle. Signal stability at 4° C. was determined to be >60 hours. Plates were warmed to room temperature and counted in a Wallac Microbeta scintillation counter. For antagonist assays, specific agonists were added at the following concentrations: (MOR) DAMGO 1 micromolar, (DOR) DPDPE 30 nM, (KOR) U69593 300 nM. Kb's were determined by Cheng-Prusoff equation (see Cheng and Prusoff, Biochem. Pharmacol. 22, 3099, 1973).

[2] = molecular target: T2, cloned human kappa opioid receptor (Homo sapiens, UniProt P41145); experiment: GTP-γ-S binding assay (SPA), antagonist mode, kappa; conditions: functional antagonist potency; membranes with cloned human kappa receptor; agonist U69593 300 nM; Cheng-Prusoff
T2 construct: expressed in transfected cells
Experimental: as §1, §2

[3] = molecular target: T3, cloned human delta opioid receptor (Homo sapiens, UniProt P41143); experiment: GTP-γ-S binding assay (SPA), antagonist mode, delta; conditions: functional antagonist potency; membranes with cloned human delta receptor; agonist DPDPE 30 nM; Cheng-Prusoff
T3 construct: expressed in transfected cells
Experimental: as §1, §2

T3 sequence (P41143 whole entry): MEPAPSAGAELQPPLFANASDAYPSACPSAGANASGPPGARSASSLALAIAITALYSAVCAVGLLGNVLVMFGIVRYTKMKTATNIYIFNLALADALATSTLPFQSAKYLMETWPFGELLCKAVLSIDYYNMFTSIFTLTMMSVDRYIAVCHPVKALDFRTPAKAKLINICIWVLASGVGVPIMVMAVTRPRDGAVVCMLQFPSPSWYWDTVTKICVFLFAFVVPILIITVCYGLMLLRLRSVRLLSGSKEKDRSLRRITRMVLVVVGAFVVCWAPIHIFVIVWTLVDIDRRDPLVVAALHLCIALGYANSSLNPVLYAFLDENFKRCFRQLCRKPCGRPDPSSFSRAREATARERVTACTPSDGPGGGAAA
T1 sequence (P35372 whole entry): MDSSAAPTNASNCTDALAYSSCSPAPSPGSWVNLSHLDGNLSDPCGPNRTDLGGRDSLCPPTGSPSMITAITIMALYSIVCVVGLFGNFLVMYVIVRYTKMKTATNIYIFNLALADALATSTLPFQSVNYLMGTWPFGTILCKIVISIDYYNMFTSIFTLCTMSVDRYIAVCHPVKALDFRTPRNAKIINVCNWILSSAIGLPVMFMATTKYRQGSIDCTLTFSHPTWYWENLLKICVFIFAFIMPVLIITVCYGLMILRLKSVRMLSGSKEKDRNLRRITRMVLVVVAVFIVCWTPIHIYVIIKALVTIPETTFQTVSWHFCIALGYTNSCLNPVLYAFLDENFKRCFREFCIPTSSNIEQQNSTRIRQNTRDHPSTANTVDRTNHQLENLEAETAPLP
T2 sequence (P41145 whole entry): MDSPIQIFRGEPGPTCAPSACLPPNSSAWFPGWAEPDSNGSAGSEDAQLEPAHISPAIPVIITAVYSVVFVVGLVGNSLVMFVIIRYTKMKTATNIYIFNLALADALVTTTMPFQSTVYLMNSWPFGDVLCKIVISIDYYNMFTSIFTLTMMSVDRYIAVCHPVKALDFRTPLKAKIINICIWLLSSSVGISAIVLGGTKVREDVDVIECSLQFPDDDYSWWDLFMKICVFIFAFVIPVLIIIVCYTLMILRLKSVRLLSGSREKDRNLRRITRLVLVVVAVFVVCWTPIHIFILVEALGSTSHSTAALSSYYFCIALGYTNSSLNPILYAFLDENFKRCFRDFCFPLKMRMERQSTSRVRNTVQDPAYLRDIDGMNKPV

For `CCCCCCNCc1ccc2c(c1)CCc1cc(C(N)=O)ccc1O2` [Example 6, 8-Hexylaminomethyl-10,11-dihydro-dibenzo[b,f]oxepine-2-carboxylic acid amide], the Kb [1] was 0.7 nM, the Kb [2] was 4.4 nM and the Kb [3] was 10.3 nM.
For `CCCCCNCc1ccc2c(c1)CCc1cc(C(N)=O)ccc1O2` [Example 5, 8-Pentylaminomethyl-10,11-dihydro-dibenzo[b,f]oxepine-2-carboxylic acid amide], the Kb [1] was 1.7 nM and the Kb [2] was 4.9 nM.
For `CC(C)CCCNCc1ccc2c(c1)CCc1cc(C(N)=O)ccc1O2` [Example 3, 8-[(4-Methyl-pentylamino)-methyl]-10,11-dihydro-dibenzo[b,f]oxepine-2-carboxylic acid amide], the Kb [1] was 0.8 nM, the Kb [2] was 6.5 nM and the Kb [3] was 7.4 nM.
`CC(C)CNCc1ccc2c(c1)CCc1cc(C(N)=O)ccc1O2` [Example 2, 8-(Isobutylamino-methyl)-10,11-dihydro-dibenzo[b,f]oxepine-2-carboxylic acid amide] was tested, and the Kb [1] was 12 nM and the Kb [2] was 29.8 nM.
In the case of `CCOCCCNCc1ccc2c(c1)CCc1cc(C(N)=O)ccc1O2` [Example 17, 8-[(3-Ethoxy-propylamino)-methyl]-10,11-dihydro-dibenzo[b,f]oxepine-2-carboxylic acid amide], the Kb [1] is reported as 2.1 nM, the Kb [2] is reported as 25.7 nM and the Kb [3] is reported as 26.7 nM.
In the case of `NC(=O)c1ccc2c(c1)CCc1cc(CNCCc3cccs3)ccc1O2` [Example 4, 8-[(2-Thiophen-2-yl-ethylamino)-methyl]-10,11-dihydro-dibenzo[b,f]oxepine-2-carboxylic acid amide], the Kb [1] is reported as 0.9 nM, the Kb [2] is reported as 12.6 nM and the Kb [3] is reported as 7.1 nM.
Work on `CC(C)CCNCc1ccc2c(c1)CCc1cc(C(N)=O)ccc1O2` [Example 1, 8-[(3-Methyl-butylamino)-methyl]-10,11-dihydro-dibenzo[b,f]oxepine-2-carboxilic acid amide] yielded a Kb [1] of 1.2 nM, a Kb [2] of 6.1 nM and a Kb [3] of 11 nM.
Compound `NC(=O)c1ccc2c(c1)CCc1cc(CNCCC3CCOCC3)ccc1O2` [Example 12, 8-{[2-(Tetrahydro-pyran-4-yl)-ethylamino]-methyl}-10,11-dihydro-dibenzo[b,f]oxepine-2-carboxylic acid amide] has a Kb [1] of 0.7 nM, a Kb [2] of 2.2 nM and a Kb [3] of 2.1 nM.
`NC(=O)c1ccc2c(c1)CCc1cc(CNCCC3CCCC3)ccc1O2` [Example 14, 8-[(2-Cyclopentyl-ethylamino)-methyl]-10,11-dihydro-dibenzo[b,f]oxepine-2-carboxylic acid amide] was tested, and the Kb [1] was 0.6 nM, the Kb [2] was 8.6 nM and the Kb [3] was 7 nM.
Work on `CC(C)(C)CCNCc1ccc2c(c1)CCc1cc(C(N)=O)ccc1O2` [Example 13, 8-[(3,3-Dimethyl-butylamino)-methyl]-10,11-dihydro-dibenzo[b,f]oxepine-2-carboxylic acid amide] yielded a Kb [1] of 4 nM, a Kb [2] of 12.1 nM and a Kb [3] of 14.4 nM.
